Reference: PubChem BioAssay (NCI)
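Protocol summary: plate cells (96-well), add compound at 5 concentrations, incubate 48 h, interpolate endpoints linearly. TGI is the concentration that stops growth completely.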

System: RXF-631 renal
Assay: inhibition of tumour cell growth, NCI panel, 48 h

| Structure (SMILES) | TGI [µM] |
| --- | --- |
| COc1ccccc1CC(C)N (configuration not stated) | > 100 |
| COc1ccc(-c2nc3c(nc2-c2ccc(OC)cc2)C(N)=NS(=O)(=O)N3)cc1 | > 100 |
